In patent US20170266266A1, “Functions of 55 Newfound Proteins and Their Medicinal Application in the Treatment and Prevention of Disease” (priority 2012, published 2017):

How the values were obtained:
[1] = tested on: adjuvant-induced arthritis; assay: Adjuvant-Induced Arthritis (AIA) in Lewis rats; conditions: 35 days and 45 days treatment sections
HBV [2] = assay: Efficacy of AFOD RAAS 105 in the HBV mouse hydrodynamic injection model; type: in vivo, BALB/c mice
Description: From day −7 to day 0, mice in groups 6-7 are administrated IP/IV by turn with test article daily for 8 days according to Table 3.
On day 0, mice from group 1 to group 7 are hydrodynamically injected through tail vein with pcDNA3.1/HBV plasmid DNA in a volume of normal saline equal to 8% of a mouse body weight within 5 seconds. The plasmid DNA solution for injections is prepared before injection.
From day 0 to day 4, mice in groups 3-5 are administrated IP/IV by turn with test article daily for 5 days according to Table 2. From day 0 to day 4, mice in groups 1 and 2 are administrated PO with vehicle or ETV daily for 5 days according to Table 1. For groups 1-5, the first dosing is executed 4 hours post hydrodynamic injection. For groups 6-7, the last dosing is executed 4 hours pre hydrodynamic injection.
Mice from group 1 to group 7 are submandibularly bled for plasma preparation according to the design in Table 1. The blood samples will be collected in a tube containing heparin sodium and centrifuged at 7000×g and 4° C. for 10 min to obtain plasma samples.
On day 5, all mice in groups 1-7 are sacrificed and dissected to obtain livers (two pieces of left lobe, one piece of middle lobe and one piece of right lobe) according to the regimen in table 1. […]
Run qPCR for HBV DNA quantification. • a. […]
HBV DNA quantity=DNA determined by HBV primer-DNA determined by plasmid primer. […]

HBV [3] = assay: Efficacy of RAAS-8 in the HBV mouse hydrodynamic injection model; type: in vivo, BALB/c mice
Description: 3.1 Hydrodynamic Injection and Compound Administration • 3.1.1. From day −7 to day 0, all 5 mice in group 4 were administrated i.p./i.v. with test article daily for 8 • days according to Table 2. • 3.1.2. On day 0, all groups of mice were hydrodynamicly injected via tail vein with pcDNA3.1/HBV plasmid DNA in a volume of normal saline equal to 8% of a mouse body weight. The plasmid DNA solution for injections was prepared one day before injection and then stored in 4E until injection. • 3.1.3. From day 0 to day 5, mice in groups 1-3 were weighed and treated with compounds or vehicle according to the regimen in Table 2. For groups 1 and 3, the first dosing was executed 4 hours pre HDI. For groups 2, the first dosing was executed 4 hours post HDI. For group 4, the last dosing was carried out 4 hours post HDI. • 3.1.4. All mice were submandibularly bled for plasma preparation according to the design in Table 1. • 3.1.5. All mice were sacrificed and dissected to obtain livers (two pieces of left lobe, one piece of middle lobe and one piece of right lobe) according to the regimen in table 1. Isolated livers were snap frozen in liquid nitrogen immediately upon collected.
3.2.1 Detect HBV DNA Replication Level in Plasma • 3.2.1.1 Isolate DNA from 50 μl plasma using QIAamp 96 DNA Blood Kit. DNA was eluted with 120 μl ddH2O. • 3.2.1.2. Run qPCR for HBV DNA quantification. • a) Dilute HBV plasmid standard by 10-fold from 10^7 copies/μl to 10 copies/μl. • b) Prepare qPCR mix as shown below.
To eliminate the influence of input HBV plasmid, primers and probe targeting HBV sequence which detect newly replicated HBV DNA and input HBV plasmid DNA and targeting pcDNA3.1 plasmid backbone sequence which only detect the input plasmid DNA were used to do real-time PCR, respectively.
HBV DNA quantity=DNA determined by HBV primer-DNA determined by plasmid primer.
Dilute the plasma 500 fold;
Detect HBsAg level in 50 μl diluted plasma by using HBsAg ELISA kit.
3.2.3.1 Liver DNA Isolation • a) Homogenize the liver tissue with Qiagen Tissue Lyser in 10 mM Tris.HCl, 10 mM EDTA, pH7.5. • b) Spin samples. Transfer the supernatant to a new tube containing equal volume of 2× proteinase K digestion buffer. Incubate at 50[…] for 3 hours. • c) Extract with phenol: chloroform: Isoamyl alcohol. • d) Transfer the upper phase to new tubes, add RNase A and incubate at 37° C. for 30 min. • e) Extract with phenol: chloroform: Isoamyl alcohol. • f) Transfer the upper phase to new microfuge tubes, add 0.7-1 volume of isopropanol, add GlycoBlue Coprecipitant to 50 μg/mL, incubate at −20[…] for 30 min. • g) Centrifuge (12000 g, 10 min) to precipitate DNA. • h) Wash the precipitate with 70% ethanol. Dissolve it in 25 μl ddH2O. Store DNA at −20[…] until use.
The total liver DNA was diluted to 10 ng/μl. […]

Row | SMILES | body weight vs saline group [1] | HBV replication in livers by real-time PCR (HBV [2]; day 5) | HBsAg generation (HBV [2]; oral 0.1 mg/kg, day 3) | ssDNA in liver by southern blot (HBV [3]; RASS 8 prophylactic treatment or ETV treatment) | HBV intermediate DNA in liver by real-time PCR (HBV [3]; day 5) | HBsAg level in plasma (HBV [3]; therapeutic treatment, within 5 days post HDI) | inhibition to HBV replication (plasma HBV DNA) (HBV [3]; therapeutically-treated, day 3 post HDI to end)
1 | C[C@@H]1C[C@H]2[C@@H]3CCC4=CC(=O)C=C[C@]4(C)[C@@]3(F)[C@@H](O)C[C@]2(C)[C@@]1(O)C(=O)CO [Dex, Dexamethasone] | reduction of body weight |  |  |  |  |  | 
2 | C=C1[C@H](CO)[C@@H](O)C[C@@H]1n1cnc2c(=O)[nH]c(N)nc21 [entecavir, Entecavir, reference compound] |  | significantly inhibited HBV replication in livers | significant increase | decreased dramatically | significantly decreased | didn't have significant inhibition | significant inhibition
